PMC12501277, “The deubiquitylase OTUB1 drives gemcitabine resistance in pancreatic cancer by enhancing pyrimidine metabolism through modulating DHODH mRNA stability” (Cell Death & Disease, 2025)

Biological target: T1, OTUB1 (Homo sapiens, UniProt Q96FW1)
T1 construct: Recombinant human OTUB1 protein (Abcam, ab157086)
Assay: SPR (Biacore 8K, OTUB1 immobilized on CM5 chip)
Type: binding

T1 sequence (Q96FW1 2-271): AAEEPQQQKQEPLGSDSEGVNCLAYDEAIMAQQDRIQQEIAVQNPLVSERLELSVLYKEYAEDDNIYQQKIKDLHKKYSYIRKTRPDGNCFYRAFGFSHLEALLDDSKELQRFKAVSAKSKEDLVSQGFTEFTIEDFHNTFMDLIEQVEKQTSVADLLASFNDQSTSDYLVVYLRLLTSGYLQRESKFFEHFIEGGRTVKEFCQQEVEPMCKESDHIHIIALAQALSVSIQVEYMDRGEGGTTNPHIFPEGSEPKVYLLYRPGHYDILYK

Kd: 23.5 µM
Compound: COc1cc(NC(=O)CCN2CCC(OC(=O)Nc3ccccc3-c3ccccc3)CC2)c(Cl)cc1CNC[C@H](O)c1ccc(O)c2[nH]c(=O)ccc12 [Batefenterol]
